Data: patent publication US6706880B2 (Research Triangle Institute, priority 1990, dated 2004)
Where two headings read alike, the source gives them in different places.

Experiments:
dopamine transporter = dopamine transporter (UniProt P23977); type: binding
Source text: (§1) Illustrative in vitro assays for binding are described in Boja et al Ann. NY Acad. Sci. 654:282-291 (1992), which is incorporated herein by reference in its entirety. […] Alternatively, the compounds may be analyzed by their ability to inhibit reuptake of a labelled neurotransmitter in a sample, in particular, in synaptosomes.

serotonin transporter = molecular target: T1, serotonin transporter (Rattus norvegicus, UniProt P31652); assay: Inhibition of [3H]paroxetine radioligand binding at the serotonin transporter
T1 construct: from tissue
T1 sequence (P31652 whole entry): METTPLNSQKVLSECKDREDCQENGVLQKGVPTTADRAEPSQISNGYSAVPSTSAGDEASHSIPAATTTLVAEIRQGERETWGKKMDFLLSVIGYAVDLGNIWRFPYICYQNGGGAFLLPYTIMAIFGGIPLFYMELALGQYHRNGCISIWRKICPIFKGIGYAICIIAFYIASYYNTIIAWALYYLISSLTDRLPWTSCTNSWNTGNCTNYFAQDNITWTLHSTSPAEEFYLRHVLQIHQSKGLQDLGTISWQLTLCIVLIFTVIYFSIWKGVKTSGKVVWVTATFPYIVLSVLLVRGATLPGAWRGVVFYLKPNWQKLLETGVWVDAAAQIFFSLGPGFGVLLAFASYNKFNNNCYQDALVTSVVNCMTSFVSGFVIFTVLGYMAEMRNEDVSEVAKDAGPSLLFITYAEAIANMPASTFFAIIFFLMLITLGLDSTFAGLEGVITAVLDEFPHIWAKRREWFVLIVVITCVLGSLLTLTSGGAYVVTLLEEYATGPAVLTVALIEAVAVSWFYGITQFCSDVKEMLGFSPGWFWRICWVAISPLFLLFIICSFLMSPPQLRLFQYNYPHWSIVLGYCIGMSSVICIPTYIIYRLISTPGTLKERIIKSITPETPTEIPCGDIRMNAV
Source text: as §1

[1] = molecular target: norepinephrine transporter (UniProt Q9WTR4); assay: Inhibition of [3H]nisoxetine radioligand binding at the norepinephrine transporter
Source text: as §1

[2] = read-out: DA IC50 for inhibition of radioligand binding, DA=[3H]WIN 35,428
[3] = 5-HT=[3H] paroxetine, read-out: 5-HT IC50 for inhibition of radioligand binding
[4] = read-out: NEN IC50 for inhibition of radioligand binding, NEN=[3H] nisoxetine
[5] = 5-HT IC50 for inhibition of radioligand binding, 5-HT=[3H] paroxetine
[6] = read-out: IC50 DA [3H]-WIN 35,428, Table IV
[7] = IC50 5-HT [3H]-paroxetine, Table IV
[8] = read-out: IC50 NE [3H]-nisoxetine, Table IV

SMILES	IC50 (dopamine transporter; [2])	IC50 (serotonin transporter; [3])	IC50 [1, 4]	IC50 (serotonin transporter; [5])	IC50 (dopamine transporter; [6])	IC50 (serotonin transporter; [7])	IC50 [1, 8]
CC(C)OC(=O)C1C(c2ccc(Cl)cc2)CC2CCC1N2C (stereo not shown) [RTI-4229-114]	1.4 nM	1400 nM	778 nM	–	–	–	–
CN1C2CCC1C(COc1ccc(I)cc1)C(c1ccc(Cl)cc1)C2 (stereo not shown) [RTI-4229-116]	33 nM	–	968 nM	1230 nM	–	–	–
Cc1ccc(C2CC3CCC(C2C(=O)OC(C)C)N3C)cc1 (stereo not shown) [RTI-4229-117]	6.45 nM	6090 nM	1930 nM	–	–	–	–
Cc1noc([C@@H]2C3CCC(C[C@H]2c2ccccc2)N3C)n1 (stereo partly shown) [RTI-4229-119]	167 nM	–	6990 nM	40600 nM	–	–	–
Cc1ccc(C2CC3CCC(C2C(=O)Oc2ccccc2)N3C)cc1 (stereo not shown) [RTI-4229-120]	3.26 nM	24500 nM	5830 nM	–	–	–	–
CC(C)OC(=O)C1C(c2ccc(I)cc2)CC2CCC1N2C (stereo not shown) [RTI-4229-121]	0.43 nM	–	285 nM	55.8 nM	–	–	–
CN1C2CCC1C(C(=O)Oc1ccccc1)C(c1ccc(Cl)cc1)C2 (stereo not shown) [RTI-4229-122]	1.5 nM	–	3790 nM	184 nM	–	–	–
CN1C2CCC1C(COC(=O)c1ccccc1)C(c1ccc(Cl)cc1)C2 (stereo not shown) [RTI-4229-123]	1.78 nM	–	393 nM	3.53 nM	1.78 ± 0.09 nM	3.53 ± 0.58 nM	393 ± 30 nM
Cc1noc([C@@H]2C(c3ccccc3)CC3CCC2N3C)n1 (stereo partly shown) [RTI-4229-124]	1030 nM	–	71000 nM	33100 nM	–	–	–
Cc1noc(C2C(c3ccc(Cl)cc3)CC3CCC2N3C)n1 (stereo not shown) [RTI-4229-125]	–	–	363 nM	2580 nM	–	–	–
Cc1noc(C2C(c3ccccc3)CC3CCC2N3C)n1 (stereo not shown) [RTI-4229-126]	100 nM	–	7880 nM	3820 nM	–	–	–
CCC(CC)OC(=O)C1C(c2ccc(C)cc2)CC2CCC1N2C (stereo not shown) [RTI-4229-127]	19 nM	4500 nM	3440 nM	–	–	–	–
CN1C2CCC1C(c1nc(-c3ccccc3)no1)C(c1ccc(Cl)cc1)C2 (stereo not shown) [RTI-4229-130]	1.62 nM	195 nM	245 nM	–	–	–	–
Cc1ccc(C2CC3CCC(C2CN(C)C)N3C)cc1 (stereo not shown) [RTI-4229-132]	3.48 nM	–	137 nM	208 nM	3.48 ± 0.11 nM	208 ± 18 nM	137 ± 11 nM
CC1C(c2ccc(Cl)cc2)CC2CCC1N2C (stereo not shown) [RTI-4229-139]	1.67 nM	–	56.9 nM	85 nM	1.87 ± 0.13 nM	85 ± 9.3 nM	57 ± 2.6 nM
COC(=O)C1C2CCC(C[C@H]1c1ccccc1)N2C (stereo partly shown) [RTI-4229-140]	101 nM	–	2080 nM	–	–	–	–
COc1ccc(-c2noc(C3C(c4ccc(Cl)cc4)CC4CCC3N4C)n2)cc1 (stereo not shown) [RTI-4229-141]	1.81 nM	–	835 nM	337 nM	–	–	–
COC(=O)C1C2CCC(CC1c1ccc(F)cc1)N2 (stereo not shown) [RTI-4229-142]	4.39 nM	68.6 nM	18.8 nM	–	–	–	–
CN1C2CCC1C(c1nc(-c3ccc(Cl)cc3)no1)C(c1ccc(Cl)cc1)C2 (stereo not shown) [RTI-4229-143]	4.1 nM	–	4070 nM	404 nM	–	–	–
CN1C2CCC1C(c1nc(-c3ccc(Br)cc3)no1)C(c1ccc(Cl)cc1)C2 (stereo not shown) [RTI-4229-144]	3.44 nM	–	1820 nM	106 nM	–	–	–
COC(=O)OCC1C(c2ccc(Cl)cc2)CC2CCC1N2C (stereo not shown) [RTI-4229-145]	9.6 nM	–	1480 nM	2930 nM	9.6 ± 0.42 nM	2930 ± 181 nM	1480 ± 96 nM
CN1C2CCC1C(C(=O)NCO)C(c1ccc(Cl)cc1)C2 (stereo not shown) [RTI-4229-146]	2.05 nM	98 nM	144 nM	–	–	–	–
CN1C2CCC1C(C(=O)N1CCCC1)C(c1ccc(Cl)cc1)C2 (stereo not shown) [RTI-4229-147]	1.38 nM	–	3950 nM	12400 nM	–	–	–
Cc1ccc(C2CC3CCC([C@H]2C(=O)OC2CCC2)N3C)cc1 (stereo partly shown) [RTI-4229-150]	3.74 nM	–	4740 nM	2020 nM	–	–	–
Cc1ccc(C2CC3CCC([C@H]2c2nc(-c4ccccc4)no2)N3C)cc1 (stereo partly shown) [RTI-4229-151]	2.33 nM	–	60 nM	1070 nM	–	–	–
Cc1ccc(C2CC3CCC([C@@H]2c2nc(-c4ccccc4)no2)N3C)cc1 (stereo partly shown) [RTI-4229-152]	494 nM	–	22700 nM	–	–	–	–
CC(C)OC(=O)C1C2CCC(CC1c1ccc(I)cc1)N2 (stereo not shown) [RTI-4229-153]	1.06 nM	–	132 nM	3.59 nM	–	–	–
COC(=O)C1C(c2ccc(F)cc2)CC2CCC1N2C (stereo not shown) [RTI-4229-286]	–	–	1230 nM	5060 nM	–	–	–
COC(=O)C1C2CCC(CC1c1ccc(C(C)C)cc1)N2 (stereo not shown) [RTI-4229-330]	310 nM	15.1 nM	–	–	–	–	–
